Each molecule was assayed against T1, trypsin-activated recombinant human renin (Homo sapiens, UniProt P00797) (assay: Renin fluorescence assay (internally quenched peptide substrate)). Settings: compounds I*.
T1 sequence (P00797 67-406): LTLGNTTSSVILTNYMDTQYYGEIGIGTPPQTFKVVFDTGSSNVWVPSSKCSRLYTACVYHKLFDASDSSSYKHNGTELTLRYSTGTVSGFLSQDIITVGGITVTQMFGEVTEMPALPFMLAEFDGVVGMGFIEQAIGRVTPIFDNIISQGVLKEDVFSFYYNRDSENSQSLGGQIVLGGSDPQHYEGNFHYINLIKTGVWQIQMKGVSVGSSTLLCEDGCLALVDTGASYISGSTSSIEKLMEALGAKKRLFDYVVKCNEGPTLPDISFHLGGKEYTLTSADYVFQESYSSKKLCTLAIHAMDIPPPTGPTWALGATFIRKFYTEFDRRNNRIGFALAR
Type: biochemical
Experimental: The sequence of this peptide corresponds to the sequence of human angiotensinogen. The following test protocol can be used. All reactions are carried out in a flat bottom white opaque microtiter plate. A 4 μL aliquot of 400 μM renin substrate (DABCYL-γ-[…]) in 192 μL assay buffer (50 mM BES, 150 mM NaCl, 0.25 mg/mL bovine serum albumin, pH7.0) is added to 4 μL of test compound in DMSO at various concentrations ranging from 10 μM to 1 nM final concentrations. Next, 100 μL of trypsin-activated recombinant human renin (final enzyme concentration of 0.2-2 nM) in assay buffer is added, and the solution is mixed by pipetting. The increase in fluorescence at 495 nm (excitation at 340 nm) is measured for 60-360 minutes at rt using a Perkin-Elmer Fusion microplate reader. The slope of a linear portion of the plot of fluorescence-increase as a function of time is then determined, and the rate is used for calculating percent inhibition in relation to uninhibited control. […] (Wang G. T. et al. Anal. Biochem. 1993, 210, 351; Nakamura, N. et al. J. Biochem. (Tokyo) 1991, 109, 741; Murakami, K. et al. Anal Biochem. 1981, 110, 232).

Compound | IC50
CNC[C@H](CC1CCCCC1)NC(=O)N1CCC[C@@H]([C@@](C)(OCC(=O)NC)c2cccc(Cl)c2)C1 [I*-25a, (R)-3-((R)-1-(3-chlorophenyl)-1-(2-(methylamino)-2-oxoethoxy)ethyl)-N—((S)-1-cyclohexyl-3-(methylamino)propan-2-yl)piperidine-1-carboxamide] | > 50 nM
COC(=O)NCCO[C@@H](c1cccc(F)c1)[C@@H]1CCCN(C(=O)NC[C@@H](N)C[C@H]2CCCCOC2)C1 [I*-28a, methyl 2-((R)-((R)-1-((S)-2-amino-3-((R)-oxepan-3-yl)propylcarbamoyl)piperidin-3-yl)(3-fluorophenyl)methoxy)ethylcarbamate] | < 10 nM
CCNC(=O)CO[C@@H](c1cccc(Cl)c1)[C@@H]1CCCN(C(=O)N[C@H](CNC)C[C@H]2CCCOC2)C1 [I*-30a, (R)-3-((R)-(3-chlorophenyl)(2-(ethylamino)-2-oxoethoxy)methyl)-N—((S)-1-(methylamino)-3-((R)-tetrahydro-2H-pyran-3-yl)propan-2-yl)piperidine-1-carboxamide] | < 20 nM
CCNC(=O)CO[C@@H](c1cccc(Cl)c1)[C@@H]1CCCN(C(=O)N[C@H](CNC)CC2CCOCC2)C1 [I*-31a, (R)-3-((R)-(3-chlorophenyl)(2-(ethylamino)-2-oxoethoxy)methyl)-N—((S)-1-(methylamino)-3-(tetrahydro-2H-pyran-4-yl)propan-2-yl)piperidine-1-carboxamide] | > 50 nM
CNC[C@H](CC1CCCCC1)NC(=O)N1CCC[C@@H]([C@@H](OCCNC(=O)OC)c2nc(C)cs2)C1 [I*-32a, methyl 2-((R)-((R)-1-((S)-1-cyclohexyl-3-(methylamino)propan-2-ylcarbamoyl)piperidin-3-yl)(4-methylthiazol-2-yl)methoxy)ethylcarbamate] | < 10 nM
CNC[C@H](CC1CCCCC1)NC(=O)N1CCC[C@@H]([C@H](OCCNC(=O)OC)c2nc(C)cs2)C1 [I*-33a, methyl 2-((S)-((R)-1-((S)-1-cyclohexyl-3-(methylamino)propan-2-ylcarbamoyl)piperidin-3-yl)(4-methylthiazol-2-yl)methoxy)ethylcarbamate] | > 50 nM
CCC(C)(C)C[C@@H](CNC)NC(=O)N1CCC[C@@H]([C@@H](OCCNC(=O)OC)c2cccc(Cl)c2)C1 [I*-34a, methyl 2-((R)-(3-chlorophenyl)((R)-1-((S)-4,4-dimethyl-1-(methylamino)hexan-2-ylcarbamoyl)piperidin-3-yl)methoxy)ethylcarbamate] | < 10 nM
COCC(C)(C)C[C@H](N)CNC(=O)N1CCC[C@@H]([C@@H](OCCNC(=O)OC)c2cccc(Cl)c2)C1 [I*-35a, methyl 2-((R)—((R)-1-((S)-2-amino-5-methoxy-4,4-dimethylpentylcarbamoyl)piperidin-3-yl)(3-chlorophenyl)methoxy)ethylcarbamate] | < 20 nM
CNC[C@H](CC1CCOCC1)NC(=O)N1CCC[C@@H]([C@@H](OCCNC(=O)OC)c2cc(C)cc(C)c2)C1 [I*-36a, methyl 2-((R)-(3,5-dimethylphenyl)((R)-1-((S)-1-(methylamino)-3-(tetrahydro-2H-pyran-4-yl)propan-2-ylcarbamoyl)piperidin-3-yl)methoxy)ethylcarbamate] | < 50 nM
CNC[C@H](CC1CCOCC1)NC(=O)N1CCC[C@@H]([C@@H](OCCNC(=O)OC)c2cc(C)ccc2C)C1 [I*-37a, methyl 2-((R)-(2,5-dimethylphenyl)((R)-1-((S)-1-(methylamino)-3-(tetrahydro-2H-pyran-4-yl)propan-2-ylcarbamoyl)piperidin-3-yl)methoxy)ethylcarbamate] | < 20 nM
COC(=O)NCCO[C@@H](c1cccc(Cl)c1)[C@@H]1CCCN(C(=O)NC[C@@H](N)COc2ccccc2)C1 [I*-38a, methyl 2-((R)—((R)-1-((R)-2-amino-3-phenoxypropylcarbamoyl)piperidin-3-yl)(3-chlorophenyl)methoxy)ethylcarbamate] | < 50 nM
CNC[C@@H](CC1(C)CCCCC1)NC(=O)N1CCC[C@@H]([C@@H](OCCNC(=O)OC)c2cccc(F)c2)C1 [I*-42a, methyl 2-((R)-(3-fluorophenyl)((R)-1-((R)-1-(methylamino)-3-(1-methylcyclohexyl)propan-2-ylcarbamoyl)piperidin-3-yl)methoxy)ethylcarbamate] | > 50 nM
CNC[C@H](CC1CCCCC1)NC(=O)N1CCC[C@@H]([C@@H](OCCCC(=O)NC)c2cccc(Cl)c2)C1 [I*-45a, (R)-3-((R)-(3-chlorophenyl)(4-(methylamino)-4-oxobutoxy)methyl)-N—((S)-1-cyclohexyl-3-(methylamino)propan-2-yl)piperidine-1-carboxamide] | < 50 nM
CNC[C@H](CN1CCCCC1=O)NC(=O)N1CCC[C@@H]([C@@H](OCCNC(=O)OC)c2cccc(F)c2)C1 [I*-46a, methyl 2-((R)-(3-fluorophenyl)((R)-1-((R)-1-(methylamino)-3-(2-oxopiperidin-1-yl)propan-2-ylcarbamoyl)piperidin-3-yl)methoxy)ethylcarbamate] | > 50 nM
CNC[C@H](CC1CCOCC1)NC(=O)N1CCC[C@@H]([C@@H](OCCNC(=O)OC)c2cc(C)ccc2F)C1 [I*-49a, methyl 2-((R)-(2-fluoro-5-methylphenyl)((R)-1-((S)-1-(methylamino)-3-(tetrahydro-2H-pyran-4-yl)propan-2-ylcarbamoyl)piperidin-3-yl)methoxy)ethylcarbamate] | > 50 nM

Now from value to molecule:

IC50 | Compound
< 50 nM | CNC[C@H](CC1CCOCC1)NC(=O)N1CCC[C@@H]([C@@H](OCCNC(=O)OC)c2cccc(F)c2)C1 [I*-26a, methyl 2-((R)-(3-fluorophenyl)((R)-1-((S)-1-(methylamino)-3-(tetrahydro-2H-pyran-4-yl)propan-2-ylcarbamoyl)piperidin-3-yl)methoxy)ethylcarbamate]
< 10 nM | CNC[C@@H](NC(=O)N1CCC[C@@H]([C@@H](OCCNC(=O)OC)c2cccc(F)c2)C1)[C@@H](O)C1CCCC1 [I*-27a, methyl 2-((R)-((R)-1-((1S,2R)-1-cyclopentyl-1-hydroxy-3-(methylamino)propan-2-ylcarbamoyl)piperidin-3-yl)(3-fluorophenyl)methoxy)ethylcarbamate]
< 1 nM | CNC[C@H](CC1CCCC1)NC(=O)N1CCC[C@@H]([C@@H](OCCNC(=O)OC)c2cccc(Cl)c2)C1 [I*-29a, methyl 2-((R)-(3-chlorophenyl)((R)-1-((S)-1-cyclopentyl-3-(methylamino)propan-2-ylcarbamoyl)piperidin-3-yl)methoxy)ethylcarbamate]
< 1 nM | CNC[C@H](CC1CCCCCC1)NC(=O)N1CCC[C@@H]([C@@H](OCCNC(=O)OC)c2cccc(F)c2)C1 [I*-39a, methyl 2-((R)-((R)-1-((S)-1-cycloheptyl-3-(methylamino)propan-2-ylcarbamoyl)piperidin-3-yl)(3-fluorophenyl)methoxy)ethylcarbamate]
< 1 nM | CNC[C@H](CC1CCCCC1)NC(=O)N1CCC[C@@H]([C@@H](OCCNC(=O)OC)c2cc(F)ccc2C)C1 [I*-40a, methyl 2-((R)-((R)-1-((S)-1-cyclohexyl-3-(methylamino)propan-2-ylcarbamoyl)piperidin-3-yl)(5-fluoro-2-methylphenyl)methoxy)ethylcarbamate]
< 10 nM | CCNC[C@H](CC1CCCCC1)NC(=O)N1CCC[C@@H]([C@@H](OCCNC(=O)OC)c2cccc(F)c2)C1 [I*-41a, methyl 2-((R)-((R)-1-((S)-1-cyclohexyl-3-(ethylamino)propan-2-ylcarbamoyl)piperidin-3-yl)(3-fluorophenyl)methoxy)ethylcarbamate]
< 10 nM | CNC[C@H](CC1(C)CCCCC1)NC(=O)N1CCC[C@@H]([C@@H](OCCNC(=O)OC)c2cccc(F)c2)C1 [I*-43a, methyl 2-((R)-(3-fluorophenyl)((R)-1-((S)-1-(methylamino)-3-(1-methylcyclohexyl)propan-2-ylcarbamoyl)piperidin-3-yl)methoxy)ethylcarbamate]
< 10 nM | CNC[C@H](CC1CCCOCC1)NC(=O)N1CCC[C@@H]([C@@H](OCCNC(=O)OC)c2cccc(F)c2)C1 (stereo partly drawn) [I*-47a, methyl 2-((R)-(3-fluorophenyl)((3R)-1-((S)-1-(methylamino)-3-(oxepan-4-yl)propan-2-ylcarbamoyl)piperidin-3-yl)methoxy)ethylcarbamate]
< 10 nM | CNC[C@@H](NC(=O)N1CCC[C@@H]([C@@H](OCCNC(=O)OC)c2cccc(F)c2)C1)[C@@H](O)C1CCCCC1 [I*-48a, methyl 2-((R)-((R)-1-((1S,2R)-1-cyclohexyl-1-hydroxy-3-(methylamino)propan-2-ylcarbamoyl)piperidin-3-yl)(3-fluorophenyl)methoxy)ethylcarbamate]
